Experimental data reported in patent US20170258786A1, “RBP4 ANTAGONISTS FOR THE TREATMENT OF AGE-RELATED MACULAR DEGENERATION AND STARGARDT DISEASE” (The Trustees of Columbia University in the City of New York, priority 2013, published 2017).

Tests used:
[1] = system: lipofuscin bisretinoids (A2E, A2-DHP-PE, atRAL di-PE); experiment: Lipofuscin bisretinoid levels in eyecups of Abca4-/- mice by HPLC; type: in vivo, mouse; details: Example 3, treated mice, 30 mg/kg oral
Text: The Abca4−/− mouse model manifests accelerated accumulation of lipofuscin in the RPE and is considered a pre-clinical efficacy model for a drug reducing lipofuscin accumulation. […] There was approximately a 70% reduction in the serum RBP4 level in treated animals (FIG. 11). Additionally, it was discovered that that the levels of A2E/isoA2E and other bisretinoids were reduced by approximately 50% in treated mice (FIG. 12).
Abca4/Abcr null mutant mice (albino) homozygous for Rpe65-Leu450 are bred genotyped and housed. […] An Alliance system (Waters, Corp, Milford, Mass.) equipped with 2695 Separation Module, 2996 Photodiode Array Detector, a 2475 Multi λ Fluorescence Detector and operating with Empower® software is used for HPLC analysis. […] HPLC quantification is carried out using the Empower® software to determine peak areas. […] Molar quantity per murine eye is determined using calibration curves constructed from known concentrations of purified external standards and by normalizing to the ratio of the HPLC injection volume (10 μL) versus total extract volume. […]
Following euthanasia, posterior eye cups were pooled and homogenized in PBS using a tissue grinder. […] Levels of bisretinoid were determined by reference to external standards of HPLC-purified compound.

insulin sensitivity = details: reference 12; cited from earlier work
ERG b-wave = ERG b-wave after photobleaching; details: in vivo
[2] = Signs of toxicity during 6 week chronic dosing of Abca4-/- mice; type: in vivo; details: 6 week-long chronic dosing, 30 mg/kg
Method: (§1) Ten week-old Abca4 null mutant mice (129/SV×C57BL/6J) bred as previously described were used in the study. Abca4−/− (knockout) and Abca4+/+ (wild-type) mice were raised under 12 h on-off cyclic lighting with an in-cage illuminance of 30-50 lux. For long-term oral dosing A1120 was formulated into Purina 5035 rodent chow at Research Diets, Inc. (New Brunswick, N.J.) to ensure consistent 30 mg/kg daily oral dosing. Animals were administered the A1120-containing chow for 6 weeks.
Administration of A1120 reduces the production of A2E, A2-DHP-PE, and atRAL di-PE in A1120-treated Abca4−/− mice in comparison to the vehicle-treated Abca4−/− animals by approximately 50%.

RBP4-TTR interaction = target: T1, RBP4-TTR interaction (Homo sapiens, UniProt P02753); experiment: TR-FRET/HTRF assay for antagonists of retinol-induced RBP4-TTR interaction (Example 2, agonist and antagonist mode); type: biochemical; details: agonist mode, dose titration without retinol
T1 construct: host or cells: E. coli
Text: TR-FRET (Time-Resolved Fluorescence Resonance Energy Transfer) is an assay format that can be used in characterization of compounds affecting protein-protein interactions (31-33). […] In the presence of retinol, RBP4-TTR interaction induces FRET that can be registered as increased ratio of […] fluorescence signals. Binding of a desired RBP4 antagonist displaces retinol and induces hindrance for RBP4-TTR interaction resulting in the decreased FRET signal (FIG. 7).
The assay was developed using E. coli-expressed MBP-tagged RBP4 and commercially available TTR labeled directly with Eu3+ cryptate. In addition to MBP-RBP4 and Eu3+ (K)-TTR, a detector reagent anti-MBP-d2 was present in the mix. The assay was first optimized in the agonist mode; sensitivity and dynamic range of the assay was […] in respect to RBP4, TTR and detection reagent concentrations.

serum RBP4 = target: T2, serum RBP4 (Mus musculus, UniProt Q00724); experiment: Serum RBP4 measured by ELISA in Abca4-/- mice; type: in vivo
T2 construct: There was approximately a 70% reduction in the serum RBP4 level in treated animals; from tissue; host or cells: mouse serum (Abca4-/- and wild-type, 129/SV x C57BL/6J)
Method: The Abca4−/− mouse model manifests accelerated accumulation of lipofuscin in the RPE and is considered a pre-clinical efficacy model for a drug reducing lipofuscin accumulation.
as §1
Blood samples were collected from a tail vein at days 0, 21 and 42 of the A1120 dosing. Whole blood was drawn into a centrifuge tube and was let clot at room temperature for 30 min followed by centrifugation at 2,000×g for 15 minutes at +4′C to collect serum. Serum RBP4 was measured using the RBP4 (mouse/rat) dual ELISA kit (Enzo Life Sciences) following the manufacturer's instructions.

A2E production = details: animal model of excessive bisretinoid accumulation, reference 11; cited from earlier work
[3] = Abca4-/- mice, 30 mg/kg daily oral in chow

O=C(O)c1ccccc1NC(=O)N1CCC(c2ccccc2C(F)(F)F)CC1 [Compound 1, 2(4-(2-(trifluoromethyl)phenyl)piperidine-1-carboxamido)benzoic acid]
Levels of A2-DHP-PE and atRAL di-PE [1]: reduced | Reduction of levels of A2E/isoA2E and other bisretinoids [1]: approximately 50% | Insulin sensitivity in mouse diabetes models (insulin sensitivity): did not improve insulin sensitivity | Effect on ERG b-wave after photobleaching (ERG b-wave): does not reduce ERG b-wave | Signs of compound toxicity such as weight loss or reduction in food consumption [2]: did not note any obvious signs of compound toxicity | Induction of RBP4-TTR interaction (RBP4-TTR interaction): did not induce RBP4-TTR interaction | Serum RBP4 reduction at Week 3 (Day 21) compared with Day 0 (serum RBP4; [3]): 64% | Serum RBP4 reduction at Week 6 (Day 42) compared with Day 0 (serum RBP4; [3]): 75% | Reduction in serum RBP4 level (serum RBP4; orally dosed for 3 weeks at 30 mg/kg, treated animals): ~70%

CC1=C(/C=C/C(C)=C/C=C/C(C)=C/C(=O)Nc2ccc(O)cc2)C(C)(C)CCC1 [fenretinide, N-(4-hydroxy-phenyl)retinamide]
A2E production in Abca4-/- mice (A2E production): reduced A2E production | Induction of RBP4-TTR interaction (RBP4-TTR interaction): did not induce RBP4-TTR interaction
